Source: the NIST ThermoML archive (doi:10.1016/j.tca.2006.01.008)

How the values were obtained:
[1] = 298.15 K; 101.33 kPa; Liquid; Vibrating tube method
[2] = refractive index (Na D-line) (dimensionless); details: 298.15 K; 101.33 kPa; Liquid; Standard Abbe refractometry
[3] = xn = mol fraction of the nth substance listed; details: 298.15 K, 101 kPa, Liquid, Vibrating tube method
[4] = refractive index (Na D-line) (dimensionless); xn = mol fraction of the nth substance listed; details: 298.15 K, 101 kPa, Liquid, Standard Abbe refractometry

CC(C)=O [acetone]
Details | mass density [kg/m3] | refractive index
[1] | 784.9 | –
[2] | – | 1.356

CC(C)=O [acetone] + CCCCCC
Details | mass density, [3] [kg/m3] | refractive index, [4]
x1 = 0.0504 | 657.2 | 1.3709
x1 = 0.0994 | 659.7 | 1.3699
x1 = 0.1511 | 662.9 | 1.3688
x1 = 0.1999 | 666.3 | 1.3679
x1 = 0.2497 | 670.1 | 1.3668
x1 = 0.3006 | 674.4 | 1.366
x1 = 0.3518 | 679 | 1.3651
x1 = 0.4006 | 683.7 | 1.3643
x1 = 0.4476 | 688.7 | 1.3635
x1 = 0.4995 | 694.5 | 1.3627
x1 = 0.5498 | 700.7 | 1.3618
x1 = 0.5976 | 707 | 1.3611
x1 = 0.6479 | 714.1 | 1.3603
x1 = 0.697 | 721.7 | 1.3595
x1 = 0.7503 | 730.5 | 1.3587
x1 = 0.7998 | 739.4 | 1.358
x1 = 0.8499 | 749.1 | 1.3572
x1 = 0.8979 | 759.3 | 1.3568
x1 = 0.9507 | 771.7 | 1.3561

CC(C)=O [acetone] + O
Details | mass density, [3] [kg/m3] | refractive index, [4]
x1 = 0.0502 | 977 | 1.3422
x1 = 0.0993 | 959.3 | 1.3499
x1 = 0.1502 | 942.2 | 1.3549
x1 = 0.1996 | 926.6 | 1.3583
x1 = 0.2496 | 911.8 | 1.3604
x1 = 0.3007 | 897.6 | 1.3616
x1 = 0.3507 | 884.8 | 1.3621
x1 = 0.4003 | 873.1 | 1.3623
x1 = 0.4509 | 862.1 | 1.3621
x1 = 0.4992 | 852.5 | 1.3618
x1 = 0.5489 | 843.5 | 1.3614
x1 = 0.599 | 835 | 1.3609
x1 = 0.6506 | 827 | 1.3603
x1 = 0.6996 | 819.9 | 1.3602
x1 = 0.7014 | 819.6 | 1.3597
x1 = 0.7467 | 813.4 | 1.3591
x1 = 0.8011 | 806.2 | 1.3592
x1 = 0.8015 | 806.3 | 1.3583
x1 = 0.846 | 800.8 | 1.3577
x1 = 0.8969 | 794.9 | 1.3569
x1 = 0.9005 | 794.5 | 1.3572
x1 = 0.9451 | 789.9 | 1.3564

CCCCCC [hexane]
Details | mass density [kg/m3] | refractive index
[1] | 655.1 | –
[2] | – | 1.3724

O [water]
Details | refractive index
[2] | 1.3325
